# From paper PMC4949556, “Subtle Structural Differences Trigger Inhibitory Activity of Propafenone Analogues at the Two Polyspecific ABC Transporters: P‐Glycoprotein (P‐gp) and Breast Cancer Resistance Protein (BCRP)” (Chemmedchem, 2016)
# What was measured:
# Type in all cases: cell-based
# P-gp = biological target: T1, P-gp (Homo sapiens, UniProt P08183); test: P-gp inhibition: steady-state daunorubicin accumulation in P-gp-overexpressing CCRF VCR1000 cells (flow cytometry)
# T1 construct: was obtained by stepwise selection of CCRF‐CEM in vincristine‐containing medium; endogenous in cells; host or cells: CCRF VCR1000 (vincristine-selected subline of CCRF-CEM human T-lymphoblasts; gift of V. Gekeler)
# Protocol: (§1) P‐gp and BCRP inhibitory activity was assessed by implementing an intracellular accumulation assay of daunorubicin or mitoxantrone in cells overexpressing P‐gp or BCRP, respectively. In a first run, the effect of compounds 5, 6, 10, 11, and 16 (Figure 2) at 100 μM final concentration was tested (Figure 3). All compounds showing an inhibitory effect of more than 50 % compared with full inhibition by the known inhibitors of P‐gp (verapamil) and BCRP (Ko143) were further processed, and IC50 values were determined (IC50 curves and Hill coefficients are available in Figure S1 and Table S3 in the Supporting Information). […] For P‐gp, nine compounds were classified as inhibitors (5 a, 5 b, 6 a, 10 a, 10 b, 11 b, 16 a, 16 b, 16 c).
# (§2) Cell culture: The human myeloid leukemia PLB985 parental and stably expressing BCRP cell lines31 were kindly provided by B. Sarkadi (Institute of Enzymology, Research Centre for Natural Sciences, Budapest, Hungary) and K. Nemet (Creative Cell Ltd., Budapest, Hungary). Both cell lines were cultured in RPMI 1640 supplemented with 10 % FBS and 100 IU mL^−1 of penicillin and streptomycin. The human T‐lymphoblast cell line CCRF VCR1000, overexpressing P‐gp, was obtained by stepwise selection of CCRF‐CEM in vincristine‐containing medium32 and was kindly provided by V. Gekeler (Altana‐Pharma formerly Byk‐Gulden, Konstanz, Germany). CCRF VCR1000 cells were cultured in RPMI 1640 medium containing 20 % FBS and were treated regularly with vincristine (1 μg mL^−1) for about 72 h, followed by centrifugation (300 g, 5 min, RT) and resuspension in normal culture medium. All cell lines were maintained at 37 °C in an atmosphere containing 5 % CO2 with 95 % relative humidity.
# (§3) Steady‐state accumulation experiments: For BCRP and P‐gp inhibition studies, the steady‐state accumulation of mitoxantrone (7 μM) and daunorubicin (3 μM), respectively, was performed as previously described.33 Briefly, cells were harvested, pelleted (300 g, 5 min, 4 °C), diluted to a concentration of 12×10^6 cells mL^−1 in HPMI (10 mM Hepes, 120 mM NaCl, 5 mM KCl, 0.4 mM MgCl2, 0.04 mM CaCl2, 10 mM glucose, 10 mM NaHCO3, 5 mM Na2HPO4, pH 7.4 with NaOH) and kept on ice for further processing. For each data point, the cell suspension (25 μL) was preincubated for 5 min at 37 °C with 2 % DMSO (25 μL) in HPMI alone (DMSO control) or containing different concentrations of test compound solutions. Thereafter, cells were preloaded with daunorubicin (50 μL) or mitoxantrone (50 μL) for 30 or 20 min at 37 °C, respectively, to reach a final concentration of 3 or 7 μM, respectively. […] Preloading was stopped by chilling cells on ice for 5 min followed by the addition of 400 μL ice‐cold PBS. Cells were pelleted (300 g, 5 min, 4 °C), the supernatant was discarded, and the cell pellet was resuspended in ice‐cold PBS (150 μL). Until measurement, cells were kept on ice and in the dark. Immediately before cell fluorescence measurement by flow cytometry (BD Accuri C6 and BD FACSCalibur, Becton Dickinson, San Jose, CA, USA; MACSQuant, MiltenyiBiotec GmbH, BergischGladbach, Germany), 50 μL of 4′,6‐diamidin‐2‐phenylindole solution (DAPI, 4 μg mL^−1 in PBS) was added to gate out dead cells. 100 μM verapamil and 1 μM Ko143 were used as positive controls for P‐gp and BCRP inhibition, respectively. […]
# P-gp / BCRP = biological target: T2, P-gp / BCRP (Homo sapiens, UniProt Q9UNQ0); test: BCRP inhibition: steady-state mitoxantrone accumulation in BCRP-expressing PLB985 cells (flow cytometry); conditions: human, pH 7.4, probe daunorubicin (3 µM) for P-gp; mitoxantrone (7 µM) for BCRP; IC50 P-gp / IC50 BCRP; read-out: selectivity index (SI) P-gp/BCRP
# T2 construct: expressed in transfected cells; host or cells: PLB985 human myeloid leukemia cells stably expressing BCRP (gift of B. Sarkadi and K. Nemet, Budapest)
# Protocol: as §1, §2, §3
# BCRP = biological target: T3, BCRP (Homo sapiens, UniProt Q9UNQ0); test: as above
# T3 construct: expressed in transfected cells; host or cells: PLB985 human myeloid leukemia cells stably expressing BCRP (gift of B. Sarkadi and K. Nemet, Budapest)
# Protocol: as §1, §2, §3
# [1] = Hill coefficient of IC50 measurement, mean ± SD of n experiments
# [2] = IC50 below 10 μM considered active
# T1 sequence (P08183 whole entry): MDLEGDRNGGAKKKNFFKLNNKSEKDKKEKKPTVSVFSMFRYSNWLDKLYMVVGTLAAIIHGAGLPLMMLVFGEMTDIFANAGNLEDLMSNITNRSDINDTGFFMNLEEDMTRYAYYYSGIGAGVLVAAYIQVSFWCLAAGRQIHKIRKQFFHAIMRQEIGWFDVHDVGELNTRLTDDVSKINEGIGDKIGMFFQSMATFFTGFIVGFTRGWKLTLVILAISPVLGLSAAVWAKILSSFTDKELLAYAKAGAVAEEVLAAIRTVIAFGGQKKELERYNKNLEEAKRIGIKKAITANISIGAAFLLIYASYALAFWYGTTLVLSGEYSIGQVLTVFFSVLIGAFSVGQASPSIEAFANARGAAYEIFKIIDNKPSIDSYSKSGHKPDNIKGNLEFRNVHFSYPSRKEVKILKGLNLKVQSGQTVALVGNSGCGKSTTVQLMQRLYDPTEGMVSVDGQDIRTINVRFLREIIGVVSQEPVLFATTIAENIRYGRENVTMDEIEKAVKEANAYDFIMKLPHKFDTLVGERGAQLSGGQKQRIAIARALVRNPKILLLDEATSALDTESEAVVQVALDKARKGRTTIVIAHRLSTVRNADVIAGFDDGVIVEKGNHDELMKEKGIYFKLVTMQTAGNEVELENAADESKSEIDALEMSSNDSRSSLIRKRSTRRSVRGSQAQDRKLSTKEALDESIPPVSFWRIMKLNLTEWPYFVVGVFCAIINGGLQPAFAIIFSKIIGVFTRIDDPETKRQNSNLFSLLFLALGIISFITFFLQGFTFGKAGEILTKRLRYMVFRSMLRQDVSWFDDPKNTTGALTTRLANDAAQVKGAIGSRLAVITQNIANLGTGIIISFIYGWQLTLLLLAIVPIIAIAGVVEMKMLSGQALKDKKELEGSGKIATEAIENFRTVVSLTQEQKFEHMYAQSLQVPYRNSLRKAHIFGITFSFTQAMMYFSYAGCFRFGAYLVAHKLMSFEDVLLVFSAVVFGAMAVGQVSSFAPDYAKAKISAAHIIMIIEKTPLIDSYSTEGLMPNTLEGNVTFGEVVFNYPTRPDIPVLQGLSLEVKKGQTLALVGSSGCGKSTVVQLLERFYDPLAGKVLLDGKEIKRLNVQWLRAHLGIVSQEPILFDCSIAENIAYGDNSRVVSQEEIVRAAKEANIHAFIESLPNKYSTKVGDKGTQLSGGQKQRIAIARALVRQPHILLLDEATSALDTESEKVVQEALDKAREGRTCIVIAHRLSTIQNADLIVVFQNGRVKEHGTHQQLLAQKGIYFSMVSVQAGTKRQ
# T3 sequence (Q9UNQ0 whole entry): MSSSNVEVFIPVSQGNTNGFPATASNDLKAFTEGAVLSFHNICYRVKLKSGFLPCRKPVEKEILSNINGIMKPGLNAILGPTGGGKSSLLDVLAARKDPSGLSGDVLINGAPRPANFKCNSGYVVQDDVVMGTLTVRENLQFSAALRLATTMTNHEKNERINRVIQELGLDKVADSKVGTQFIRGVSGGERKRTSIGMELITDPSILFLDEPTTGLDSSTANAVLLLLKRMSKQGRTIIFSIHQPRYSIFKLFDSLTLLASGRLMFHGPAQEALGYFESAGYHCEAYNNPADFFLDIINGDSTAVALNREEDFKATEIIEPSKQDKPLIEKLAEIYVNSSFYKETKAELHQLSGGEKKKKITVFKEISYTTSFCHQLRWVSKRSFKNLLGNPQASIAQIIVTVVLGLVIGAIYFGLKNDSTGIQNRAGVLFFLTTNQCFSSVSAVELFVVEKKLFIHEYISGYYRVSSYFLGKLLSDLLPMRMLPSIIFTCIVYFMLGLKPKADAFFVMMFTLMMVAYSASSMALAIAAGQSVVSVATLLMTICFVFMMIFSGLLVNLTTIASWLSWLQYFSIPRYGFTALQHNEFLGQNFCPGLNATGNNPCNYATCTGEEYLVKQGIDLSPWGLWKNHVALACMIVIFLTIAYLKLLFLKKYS
# T2 sequence (Q9UNQ0 whole entry): as above
smiles,measurement,setting,value
"O=C(CCc1ccccc1)c1ccccc1OCC(O)CNC(=O)C1CCCN1 (centres unmarked) [Compound 5 a, N ‐(2‐hydroxy‐3‐(2‐(3‐phenylpropanoyl)phenoxy)propyl)pyrrolidine‐2‐carboxamide]",Hill coefficient P-gp,P-gp; [1],1.3±0.2
same,in vitro classification as P-gp inhibitor,P-gp; [2],inhibitors
same,IC50,"P-gp; daunorubicin 3 μM, CCRF VCR1000 cells, mean±SD, at least n=3",2.1 ± 0.4 µM
same,fold higher IC50 value for BCRP than for P-gp,P-gp; ratio IC50 BCRP / IC50 P-gp,more than fivefold
same,selectivity ratio,P-gp / BCRP,0.13
same,IC50,"BCRP; BCRP IC50, mitoxantrone 7 μM, PLB985 BCRP cells, mean±SD, at least n=3 (11 a n=2)",16.1 µM
same,Hill coefficient BCRP,BCRP; [1],1.4±0.3
same,in vitro classification as BCRP inhibitor,BCRP; [2],borderline activity
